Assay [1] has as its system HEL. The assay can be described thus: In vitro inhibitory concentration for antiviral activity was tested against HEL cells. Format: functional, cell-based. The conditions noted are these: Homo sapiens.
In assay [2] the test system is HeLa. The assay can be described thus: In vitro inhibitory concentration for cytotoxic activity was tested against HeLa cells. To be noted: Homo sapiens. Format: functional, cell-based.
For assay [3], the system named is Vero. The assay can be described thus: In vitro inhibitory concentration for antiviral activity was tested against vero cells. It is filed as functional, cell-based. The conditions noted are these: Chlorocebus sabaeus.
The subject of assay [4] is HEL. The assay can be described thus: (§1) In vitro minimum inhibitory concentration for antiviral activity was tested against Varicella-Zoster virus(VZV). It is filed as functional. The conditions noted are these: Homo sapiens.
The test system of assay [5] is Vero. The assay can be described thus: (§2) In vitro minimum inhibitory concentration for antiviral activity was tested against Herpes simplex virus type 1(HSV-1). The conditions noted are these: Chlorocebus sabaeus. Format: functional.
The test system of assay [6] is Human alphaherpesvirus 3. The assay is described as §1. It is filed as functional.
In assay [7] the test system is Human alphaherpesvirus 1. The assay is described as §2. It is filed as functional.

Values after ≈ are worked out from the molar mass of the structure shown. A value given as a limit tells only on which side of the number the result lay.

The source of these data is ChEMBL document CHEMBL1130504, “Synthesis and biological activity of artificial analogs of mycalamide A” (Bioorg Med Chem Lett, 1997).

A word on the IC50: it is the concentration that inhibits the measured activity by half. For the molecule `C=C1C[C@](OC)([C@H](O)C(=O)N[C@@H]2OCO[C@@H]3[C@@H](OC)[C@H](O)[C@@H](CO)O[C@@H]32)O[C@H](C)[C@@H]1C`, the IC50 in assay [1] is more than 50 µg/mL; in assay [2] it was more than 10 µg/mL; in assay [3], more than 50 µg/mL. In addition, the MIC is 25 µg/mL (≈ 55.9 µM) in assay [4] and more than 50 µg/mL in assay [5].

For `C=C1C[C@](OC)([C@@H](O)C(=O)N[C@@H]2OCO[C@H]3[C@@H]2O[C@H](C[C@H](O)CO)C(C)(C)[C@@H]3OC)O[C@H](C)[C@@H]1C`, the values for the IC50 in assay [1], in assay [2] and in assay [3] were more than 50 µg/mL, more than 10 µg/mL and more than 50 µg/mL, respectively. Further, the MIC in assay [4] came out at 12.5 µg/mL (≈ 24.8 µM); in assay [5], 50 µg/mL (≈ 99.3 µM).

For `C=C1C[C@@H](C)O[C@@](OC)([C@H](O)C(=O)N[C@@H]2OCO[C@H]3[C@@H]2O[C@H](C[C@H](O)CO)C(C)(C)[C@@H]3OC)C1`, the IC50 in assay [1] was more than 50 µg/mL; in assay [2] it was 3 µg/mL (≈ 6.13 µM); in assay [3] it was 50 µg/mL (≈ 102 µM). In addition, the MIC in assay [4] turned out to be 1.56 µg/mL (≈ 3.19 µM); in assay [5], 50 µg/mL (≈ 102 µM).

On to `CO[C@@H]1[C@H]2OCO[C@@H](NC(=O)[C@@H](O)[C@@]3(OC)CCC[C@@H](C)O3)[C@H]2O[C@H](C[C@H](O)CO)C1(C)C`, for which the IC50 is more than 50 µg/mL in assay [1], more than 10 µg/mL in assay [2] and more than 50 µg/mL in assay [3]. In addition, the MIC in assay [4] was 3.12 µg/mL (≈ 6.54 µM); in assay [5], 50 µg/mL (≈ 105 µM).

For `C=C1C[C@](OC)([C@H](O)C(=O)N[C@@H]2OCO[C@@H]3[C@@H](OC)[C@@H]4OC(C)(C)OC[C@H]4O[C@@H]32)O[C@H](C)[C@@H]1C`, the IC50 in assay [1] was more than 50 µg/mL; in assay [2] it was 10 µg/mL (≈ 20.5 µM); in assay [3] it was 50 µg/mL (≈ 103 µM). Moreover, the MIC in assay [6] came to 12.5 µg/mL (≈ 25.6 µM); in assay [7], 50 µg/mL (≈ 103 µM).

As to `C=C1C[C@](OC)([C@H](O)C(=O)N[C@H]2OCO[C@@H]3[C@@H](OC)[C@H](O)[C@@H](CO)O[C@@H]32)O[C@H](C)[C@@H]1C`, the half-inhibitory concentration (IC50) was more than 50 µg/mL in assay [1], 1 µg/mL (≈ 2.23 µM) in assay [2] and 25 µg/mL (≈ 55.9 µM) in assay [3]. Further, the MIC was 3.12 µg/mL (≈ 6.98 µM) in assay [4] and 25 µg/mL (≈ 55.9 µM) in assay [5].

As to `C=C1C[C@](OC)([C@@H](O)C(=O)N[C@H]2OCO[C@H]3[C@@H]2O[C@H](C[C@H](O)CO)C(C)(C)[C@@H]3OC)O[C@H](C)[C@@H]1C`, the values for the half-inhibitory concentration (IC50) in assay [1], in assay [2] and in assay [3] were 12.5 µg/mL (≈ 24.8 µM), more than 10 µg/mL and 12.5 µg/mL (≈ 24.8 µM), respectively. Further, the MIC is less than 0.391 µg/mL in assay [4] and 50 µg/mL (≈ 99.3 µM) in assay [5].

Consider `C=C1C[C@@H](C)O[C@@](OC)([C@H](O)C(=O)N[C@H]2OCO[C@H]3[C@@H]2O[C@H](C[C@H](O)CO)C(C)(C)[C@@H]3OC)C1`, for which the half-maximal inhibitory concentration (IC50) is less than 0.391 µg/mL in assay [1], less than 0.03 µg/mL in assay [2] and less than 0.391 µg/mL in assay [3]. For the same molecule, the MIC in assay [4] and in assay [5] was less than 0.391 µg/mL in each case.

Take `CO[C@@H]1[C@H]2OCO[C@H](NC(=O)[C@@H](O)[C@@]3(OC)CCC[C@@H](C)O3)[C@H]2O[C@H](C[C@H](O)CO)C1(C)C`: the results for the IC50 in assay [1], in assay [2] and in assay [3] were 1.56 µg/mL (≈ 3.27 µM), 0.03 µg/mL (≈ 0.0628 µM) and 0.391 µg/mL (≈ 0.819 µM), respectively. For the same molecule, the MIC was less than 0.391 µg/mL in assay [4] and 3.12 µg/mL (≈ 6.54 µM) in assay [5].

As to `C=C1C[C@](OC)([C@H](O)C(=O)N[C@H]2OCO[C@@H]3[C@@H](OC)[C@@H]4OC(C)(C)OC[C@H]4O[C@@H]32)O[C@H](C)[C@@H]1C`, the IC50 in assay [1] is more than 50 µg/mL; in assay [2] it was 3 µg/mL (≈ 6.15 µM); in assay [3] it was more than 50 µg/mL. The MIC turned out to be 12.5 µg/mL (≈ 25.6 µM) in assay [6] and 50 µg/mL (≈ 103 µM) in assay [7].

Consider `C=C1C[C@](OC)([C@H](O)C(=O)N[C@@H]2OCO[C@H]3[C@@H]2O[C@H](C[C@H](O)CO)C(C)(C)[C@@H]3OC)O[C@H](C)[C@@H]1C`, for which the concentration for half-maximal inhibition (IC50) in assay [1] turned out to be 12.5 µg/mL (≈ 24.8 µM); in assay [2], 3 µg/mL (≈ 5.96 µM); in assay [3] it was 12.5 µg/mL (≈ 24.8 µM). Moreover, the MIC in assay [4] stood at 1.56 µg/mL (≈ 3.1 µM); in assay [5], 12.5 µg/mL (≈ 24.8 µM).

With `Nc1nc2c(ncn2COCCO)c(=O)[nH]1` [ACYCLOVIR], the 50% inhibitory concentration (IC50) in assay [1] was more than 50 µg/mL; in assay [3], 50 µg/mL (≈ 222 µM). Also, the MIC in assay [7] amounted to 1.56 µg/mL (≈ 6.94 µM).

In the case of `O=c1[nH]cc(F)c(=O)[nH]1` [FLUOROURACIL], the IC50 in assay [2] is 3 µg/mL (≈ 23.1 µM).

For `C=C1C[C@](OC)([C@H](O)C(=O)N[C@H]2OCO[C@H]3[C@@H]2O[C@H](C[C@H](O)CO)C(C)(C)[C@@H]3OC)O[C@H](C)[C@@H]1C` [MYCALAMIDE A], the figures for the IC50 in assay [1], in assay [2] and in assay [3] were less than 0.391 µg/mL, less than 0.03 µg/mL and less than 0.391 µg/mL, respectively. For the same molecule, the MIC in assay [4] and in assay [5] was less than 0.391 µg/mL throughout.
